Experimental data reported in paper PMC2749987 (European journal of pharmacology, 2009).
Like-named read-outs stand apart in the source and are kept apart here.

What was measured:
5-HT2A = settings: ref Knight et al., 2004; cited from earlier work
human 5-HT2B receptor [1] = target: T1, human 5-HT2B receptor (Homo sapiens, UniProt P41595); format: binding; settings: for nH (Hill slope), 5-HT2B binding: competition binding
human 5-HT2C receptor [2] = target: T2, human 5-HT2C receptor (Homo sapiens, UniProt P28335); format: binding; settings: for nH (Hill slope), 5-HT2C binding: competition binding
T2 sequence (P28335 33-458): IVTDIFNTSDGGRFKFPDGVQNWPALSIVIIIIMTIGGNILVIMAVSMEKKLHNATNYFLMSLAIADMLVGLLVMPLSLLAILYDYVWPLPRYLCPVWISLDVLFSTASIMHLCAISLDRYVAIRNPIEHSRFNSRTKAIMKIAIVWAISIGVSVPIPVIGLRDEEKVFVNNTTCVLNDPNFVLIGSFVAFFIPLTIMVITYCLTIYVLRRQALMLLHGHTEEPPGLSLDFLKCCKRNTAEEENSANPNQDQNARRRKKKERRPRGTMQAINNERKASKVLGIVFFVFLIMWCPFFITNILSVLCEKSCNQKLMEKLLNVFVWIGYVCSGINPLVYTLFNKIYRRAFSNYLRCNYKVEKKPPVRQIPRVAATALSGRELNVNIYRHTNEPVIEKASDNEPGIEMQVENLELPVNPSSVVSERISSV

human 5-HT2A receptor [3] = target: T3, human 5-HT2A receptor (Homo sapiens, UniProt P28223); format: binding; settings: for nH (Hill slope), 5-HT2A binding: competition binding
human 5-HT2A receptor [4] = target: T3, human 5-HT2A receptor; format: cell-based
human 5-HT2B receptor [5] = target: T1, human 5-HT2B receptor
mice = settings: intraperitoneal single-dose, ref Rowland et al., 2008, cited from earlier work
human 5-HT2C receptor [6] = target: T2, human 5-HT2C receptor; format: cell-based
5-HT2C receptors = settings: ref Jensen, 2006, Smith et al., Thomsen et al., 2008; cited from earlier work
5-HT2B receptors [7] = settings: ref Jensen, 2006, Smith et al., Thomsen et al., 2008; cited from earlier work
rats = settings: oral single-dose, ref Thomsen et al., 2008, cited from earlier work
5-HT2A receptors [8] = settings: read-out: affinity at 5-HT2A receptors Ki, ref Jensen, 2006, Smith et al., Thomsen et al., 2008; cited from earlier work
5-HT2A receptors [9] = settings: ref Jensen, 2006, Smith et al., Thomsen et al., 2008; cited from earlier work
5-HT2B receptors [10] = settings: read-out: affinity at 5-HT2B receptors Ki, ref Jensen, 2006, Smith et al., Thomsen et al., 2008; cited from earlier work
[11] = read-out: 5-HT2B Ki ± SEM, competition vs 5.0 nM [3H]-mesulergine
[12] = read-out: 5-HT2A Ki ± SEM, competition vs 1.0 nM [3H]-ketanserin

T3 sequence (P28223 whole entry): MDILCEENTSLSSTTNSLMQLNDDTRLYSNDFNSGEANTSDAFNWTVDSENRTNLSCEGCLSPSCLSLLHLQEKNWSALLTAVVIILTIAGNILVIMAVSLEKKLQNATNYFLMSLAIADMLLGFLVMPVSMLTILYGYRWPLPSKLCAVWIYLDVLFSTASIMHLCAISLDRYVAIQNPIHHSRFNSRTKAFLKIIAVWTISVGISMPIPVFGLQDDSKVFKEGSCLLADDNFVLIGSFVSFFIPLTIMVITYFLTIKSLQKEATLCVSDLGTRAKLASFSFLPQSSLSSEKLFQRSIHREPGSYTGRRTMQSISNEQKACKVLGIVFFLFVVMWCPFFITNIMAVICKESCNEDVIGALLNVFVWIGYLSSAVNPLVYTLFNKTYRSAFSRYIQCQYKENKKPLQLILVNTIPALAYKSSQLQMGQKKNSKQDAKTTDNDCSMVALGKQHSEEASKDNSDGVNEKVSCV
T1 sequence (P41595 whole entry): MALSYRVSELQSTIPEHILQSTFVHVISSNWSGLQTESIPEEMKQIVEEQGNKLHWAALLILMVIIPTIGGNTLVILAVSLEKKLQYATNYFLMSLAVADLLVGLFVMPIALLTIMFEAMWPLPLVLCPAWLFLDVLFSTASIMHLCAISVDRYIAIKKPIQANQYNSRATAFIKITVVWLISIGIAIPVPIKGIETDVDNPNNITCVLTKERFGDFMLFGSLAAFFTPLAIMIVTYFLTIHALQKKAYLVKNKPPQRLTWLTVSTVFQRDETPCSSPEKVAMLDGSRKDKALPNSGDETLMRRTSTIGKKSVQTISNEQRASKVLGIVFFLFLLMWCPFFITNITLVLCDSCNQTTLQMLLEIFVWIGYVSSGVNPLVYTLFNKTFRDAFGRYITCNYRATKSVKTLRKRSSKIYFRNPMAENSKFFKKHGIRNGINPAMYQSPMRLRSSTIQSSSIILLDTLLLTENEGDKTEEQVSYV

## COc1cccc([C@H](O)C2CCN(CCc3ccc(F)cc3)CC2)c1OC [M100907]
5-HT2A
  5-HT2A selectivity over 5-HT2B receptors: 500 times
  5-HT2A selectivity over 5-HT2C receptors: 15 times

## CN(C)[C@@H]1Cc2ccccc2[C@H](c2ccccc2)C1 [(−)-cis-PAT]
Human 5-HT2B receptor [1]
  nH (Hill slope), 5-HT2B binding: ~1.0
Human 5-HT2B receptor [1]; [11]
  Ki: ~10 µM
Human 5-HT2C receptor [2]
  nH (Hill slope), 5-HT2C binding: 0.90 ± 0.04
Human 5-HT2A receptor [3]
  nH (Hill slope), 5-HT2A binding: 1.0 ± 0.1
Human 5-HT2A receptor [3]; [12]
  Ki: 1500 ± 2 nM

## CN(C)[C@H]1Cc2ccccc2[C@@H](c2ccccc2)C1 [(+)-cis-PAT]
Human 5-HT2B receptor [1]
  nH (Hill slope), 5-HT2B binding: ~1.0
Human 5-HT2B receptor [1]; [11]
  Ki: ~5 µM
Human 5-HT2C receptor [2]
  nH (Hill slope), 5-HT2C binding: 0.9 ± 0.1
Human 5-HT2A receptor [3]
  nH (Hill slope), 5-HT2A binding: 0.9 ± 0.2
Human 5-HT2A receptor [3]; [12]
  Ki: 780 ± 2 nM

## [3H]C([3H])(N1CCC(C(=O)c2ccc(F)cc2)CC1)C([3H])([3H])n1c(=O)[nH]c2ccccc2c1=O [[^3H]-Ketanserin, reference compound]
Human 5-HT2A receptor [3]; saturation binding
  Bmax, 5-HT2A receptors: 1.73 ± 0.11 pmol/mg protein

## CN(C)[C@@H]1Cc2ccccc2[C@@H](c2ccccc2)C1 (relative stereo) [(−)-trans-PAT, (1R,3S)-(−)-trans-1-phenyl-3-dimethylamino-1,2,3,4-tetrahydronaphthalene]
Human 5-HT2A receptor [4]
  nH, inverse agonism at 5-HT2A receptors: 0.85 ± 0.01
  stimulation of PLC/[3H]-IP formation in cells expressing 5-HT2A receptors: does not stimulate
Human 5-HT2A receptor [4]; 10 μM
  (maximal) inhibition of constitutive signaling at 5-HT2A receptors: 57.6 ± 5.66%
Human 5-HT2A receptor [4]; vs serotonin
  pA2, 5-HT2A receptors: 6.3
Human 5-HT2B receptor [5]
  nH, inverse agonism at 5-HT2B receptors: 0.87 ± 0.23
  stimulation of PLC/[3H]-IP formation in cells expressing 5-HT2B receptors: does not stimulate
Human 5-HT2B receptor [5]; 10 μM
  (maximal) inhibition of constitutive signaling at 5-HT2B receptors: 35.3 ± 2.00%
Human 5-HT2B receptor [5]; vs serotonin
  pA2, 5-HT2B receptors: 5.8
mice; at 10 mg/kg
  maximal reduction of food intake: about 75%
mice
  ED50, reduction of food intake: 4.2 mg/kg
Human 5-HT2B receptor [1]
  nH (Hill slope), 5-HT2B binding: 1.0 ± 0.001
Human 5-HT2B receptor [1]; [11]
  Ki: 1.2 µM
Human 5-HT2B receptor [1]; read-out: 5-HT2B receptor affinity Ki, as quoted in text from Table
  Ki: ~1.2 µM
Human 5-HT2C receptor [2]
  difference in affinity at 5-HT2A and 5-HT2C receptors: 10 times
  nH (Hill slope), 5-HT2C binding: 0.9 ± 0.1
Human 5-HT2C receptor [6]
  potency (EC50) to activate 5-HT2C receptors greater than 5-HT2C affinity (Ki): about 2 times
Human 5-HT2C receptor [6]; CHO cells
  Emax, 5-HT2C activation: 464 ± 10.8 % basal control activity
  nH, 5-HT2C activation: 0.75 ± 0.13
Human 5-HT2A receptor [3]
  nH (Hill slope), 5-HT2A binding: 1.1 ± 0.1
Human 5-HT2A receptor [3]; [12]
  Ki: 410 ± 38 nM
Human 5-HT2A receptor [3]; read-out: 5-HT2A receptor affinity Ki, as quoted in text from Table
  Ki: ~400 nM

## C[C@H]1CNCCc2ccc(Cl)cc21 [lorcaserin]
5-HT2C receptors
  affinity for 5-HT2C receptors higher than at 5-HT2A receptors: about 7.5 times
  affinity for human 5-HT2C over 5-HT2B receptors: about 12 times
5-HT2B receptors [7]
  efficacy, activation of 5-HT2B receptors: 100%
rats; at 24 mg/kg
  maximal reduction of food intake: about 60%
rats
  ED50, reduction of food intake: 18 mg/kg
5-HT2A receptors [8]
  Ki: ~112 nM
5-HT2A receptors [9]
  efficacy, activation of 5-HT2A receptors: 75%
5-HT2B receptors [10]
  Ki: ~174 nM
